Test results: paper PMC9098912, “Molecular basis for inhibiting human glucose transporters by exofacial inhibitors” (Nature Communications, 2022)
Entries after “also recorded” stand apart in the source; their conditions may differ.

Assays:
GLUT1 = system: GLUT1; set-up: method as in Siebeneicher et al., 2016; details: SAR of Bayer compounds; ref Siebeneicher et al., 2016; cited from earlier work
WT GLUT3 = molecular target: T1, WT GLUT3 (Homo sapiens, UniProt P11169, N43T); experiment: Microscale thermophoresis (MST) binding assay; set-up: Figure 1e middle: MST binding curve, Mean / Figure 1e right: MST binding curve, Mean / Figure 2c: MST binding curve, Mean: unit not given here; details: for Figure 1e right: MST binding curve, Mean: GLUT3, log [phloretin]
T1 construct: His10 (N); made in house; host or cells: Sf9 insect cells (baculovirus)
T1 sequence (P11169 1-496 N43T): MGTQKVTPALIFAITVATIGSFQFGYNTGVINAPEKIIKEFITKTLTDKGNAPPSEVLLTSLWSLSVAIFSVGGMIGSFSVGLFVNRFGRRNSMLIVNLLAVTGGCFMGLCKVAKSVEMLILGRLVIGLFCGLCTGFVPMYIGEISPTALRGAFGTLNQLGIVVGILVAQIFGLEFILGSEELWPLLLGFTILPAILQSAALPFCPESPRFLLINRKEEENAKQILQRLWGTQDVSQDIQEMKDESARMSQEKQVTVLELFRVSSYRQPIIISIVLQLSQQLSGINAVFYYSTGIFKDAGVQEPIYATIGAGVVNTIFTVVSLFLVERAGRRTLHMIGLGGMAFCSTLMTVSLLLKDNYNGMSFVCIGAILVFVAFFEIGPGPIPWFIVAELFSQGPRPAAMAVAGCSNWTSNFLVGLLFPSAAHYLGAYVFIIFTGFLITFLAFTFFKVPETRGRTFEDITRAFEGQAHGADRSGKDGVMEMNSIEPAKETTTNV
Description: (§1) All mutants were generated by standard PCR-based strategy.
(§2) Inhibitors with serial dilutions were mixed with indicated protein. […] MST analyses were conducted on a Monolith NT. […] The MST data was analyzed by Monolith NT.115.

[1] = molecular target: T2, GLUT3exo (GLUT3 S64W and I305W) (Homo sapiens, UniProt P11169, I305W/N43T/S64W); experiment: biochemical; format: binding; details: for Figure 1e right: MST binding curve, Mean: GLUT3 dTrp mutant, log [phloretin]
T2 construct: His10 (N); made in house; host or cells: Sf9 insect cells (baculovirus)
T2 sequence (P11169 whole entry N43T/S64W/I305W): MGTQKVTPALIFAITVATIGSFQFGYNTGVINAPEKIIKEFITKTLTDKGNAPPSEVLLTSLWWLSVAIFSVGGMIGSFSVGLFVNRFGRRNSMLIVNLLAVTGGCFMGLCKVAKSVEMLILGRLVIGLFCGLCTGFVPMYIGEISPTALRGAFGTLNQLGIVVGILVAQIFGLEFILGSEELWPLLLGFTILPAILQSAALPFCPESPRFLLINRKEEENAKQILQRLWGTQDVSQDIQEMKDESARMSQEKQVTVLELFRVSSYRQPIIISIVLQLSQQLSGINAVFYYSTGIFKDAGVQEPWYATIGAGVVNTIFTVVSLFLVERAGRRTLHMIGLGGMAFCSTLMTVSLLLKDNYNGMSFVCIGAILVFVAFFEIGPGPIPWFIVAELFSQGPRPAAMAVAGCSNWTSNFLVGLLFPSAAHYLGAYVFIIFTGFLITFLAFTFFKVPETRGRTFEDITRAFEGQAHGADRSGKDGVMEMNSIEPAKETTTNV
Description: Following the same principle for the engineering of XylE-WW, we introduced two Trp substitutions, S64W and I305W, on the extracellular segments of TM2 and TM8 of GLUT3, respectively. This variant will be referred to as GLUT3exo hereafter (Fig. 1a). The two bulky substituents were expected to trap GLUT3 in an outward-facing conformation.
as §1, §2

For COc1ccccc1N1CCN(c2ncnc3c2cnn3-c2ccccc2)CC1 [cmpd 3], the “GLUT1 potency” value (GLUT1) is given as “increased the potency”.
In the case of FC(F)(F)Oc1ccccc1N1CCN(c2ncnc3c2cnn3-c2ccccc2)CC1 [cmpd 4], the “GLUT1 potency” value (GLUT1) is given as “completely inactive”.
In the case of FC(F)(F)c1ccccc1N1CCN(c2ncnc3c2cnn3-c2ccccc2)CC1 [cmpd 6], the “GLUT1 potency” value (GLUT1) is listed as “completely inactive”.
For COc1cccc(N2CCN(c3ncnc4c3cnn4-c3ccccc3)CC2)c1 [cmpd 8], the “GLUT1 potency” value (GLUT1) is listed as “decreased the GLUT1 potency”.
In the case of COc1ccc(N2CCN(c3ncnc4c3cnn4-c3ccccc3)CC2)cc1 [cmpd 10], the “GLUT1 potency” value (GLUT1) is given as “decreased the GLUT1 potency”.
In the case of COc1ccccc1N1CCN(c2ncnc3c2cnn3-c2ccccc2)CC1C (stereo not shown) [cmpd 37], the “GLUT1 potency” value (GLUT1) is listed as “tolerated”.
For COc1ccccc1N1CC2(C1)CN(c1ncnc3c1cnn3-c1ccccc1)C2 [cmpd 41], the “GLUT1 potency” value (GLUT1) is given as “less potent”.
In the case of COc1ccccc1N1CCCN(c2ncnc3c2cnn3-c2ccccc2)CC1 [cmpd 42], the “GLUT1 potency” value (GLUT1) is listed as “increased the potency”.
In the case of COc1ccccc1N1CCN(c2ncnc3c2cnn3-c2ccccc2F)CC1 [cmpd 49], the “GLUT1 potency” value (GLUT1) is listed as “without significant loss of GLUT1 inhibition activity; also recorded: increased the potency”.
In the case of COc1ccccc1N1CCN(c2ncnc3c2cnn3-c2ccccn2)CC1 [cmpd 63], the “GLUT1 potency” value (GLUT1) is listed as “significantly reduced the potency”.
For COc1ccccc1N1CCN(c2ncnc3c2cnn3-c2ncccc2F)CC1 [cmpd 66], the “GLUT1 potency” value (GLUT1) is listed as “significantly reduced the potency”.
In the case of COc1ccccc1N1CCN(c2ncnc3c2cnn3-c2ccccc2OC)CC1 [compound 50], the “GLUT1 potency” value (GLUT1) is listed as “without significant loss of GLUT1 inhibition activity”.
For COc1ccccc1N1CCN(c2ncnc3c2cnn3-c2ccccc2C)CC1 [compound 51], the “GLUT1 potency” value (GLUT1) is listed as “without significant loss of GLUT1 inhibition activity”.
In the case of COc1ccccc1N1CCN(c2ncnc3c2cnn3-c2cccnc2)CC1 [compound 64], the “GLUT1 potency” value (GLUT1) is given as “significantly reduced the potency”.
In the case of COc1ccccc1N1CCN(c2ncnc3c2cnn3-c2ccncc2)CC1 [compound 65], the “GLUT1 potency” value (GLUT1) is given as “significantly reduced the potency”.
In the case of O=C(CCc1ccc(O)cc1)c1c(O)cc(O)cc1O [phloretin], the “Figure 1e right: MST binding curve, Mean” value (WT GLUT3; M -3.30103) is reported as 99.1935, the “Figure 1e right: MST binding curve, Mean” value (WT GLUT3; M -3.60206) is reported as 89.7967 and the “Figure 1e right: MST binding curve, Mean” value (WT GLUT3; M -3.90309) is reported as 81.0827. For the same molecule, the “Figure 1e right: MST binding curve, Mean” value (WT GLUT3; M -4.20412) was 66.445, the “Figure 1e right: MST binding curve, Mean” value (WT GLUT3; M -4.50515) was 50.3655 and the “Figure 1e right: MST binding curve, Mean” value (WT GLUT3; M -4.80618) was 41.2635. The “Figure 1e right: MST binding curve, Mean” value (WT GLUT3; M -5.10721) was 25.71, the “Figure 1e right: MST binding curve, Mean” value (WT GLUT3; M -5.40824) was 15.7731 and the “Figure 1e right: MST binding curve, Mean” value (WT GLUT3; M -5.70927) was 5.8894. The “Figure 1e right: MST binding curve, Mean” value (WT GLUT3; M -6.0103) was 4.0557, the “Figure 1e right: MST binding curve, Mean” value (WT GLUT3; M -6.31133) was 2.0286 and the “Figure 1e right: MST binding curve, Mean” value (WT GLUT3; M -6.61236) was 4.4085. For the same molecule, the “Figure 1e right: MST binding curve, Mean” value (WT GLUT3; M -6.91339) was 1.9121, the “Figure 1e right: MST binding curve, Mean” value (WT GLUT3; M -7.21442) was -7.4814 and the “Figure 1e right: MST binding curve, Mean” value (WT GLUT3; M -7.51545) was -2.4182. For the same molecule, the “Figure 1e right: MST binding curve, Mean” value (WT GLUT3; M -7.81648) was 0.9156, the Kd (WT GLUT3; WT GLUT3) was 26.3 ± 3.2 µM and the Kd [1] was 15.5 ± 1.5 µM. For the same molecule, the “Figure 1e right: MST binding curve, Mean” value ([1]; M -3.30103) was 98.0572, the “Figure 1e right: MST binding curve, Mean” value ([1]; M -3.60206) was 93.8274 and the “Figure 1e right: MST binding curve, Mean” value ([1]; M -3.90309) was 89.3364. For the same molecule, the “Figure 1e right: MST binding curve, Mean” value ([1]; M -4.20412) was 79.2593, the “Figure 1e right: MST binding curve, Mean” value ([1]; M -4.50515) was 66.4804 and the “Figure 1e right: MST binding curve, Mean” value ([1]; M -4.80618) was 46.5416. For the same molecule, the “Figure 1e right: MST binding curve, Mean” value ([1]; M -5.10721) was 34.4965, the “Figure 1e right: MST binding curve, Mean” value ([1]; M -5.40824) was 22.7361 and the “Figure 1e right: MST binding curve, Mean” value ([1]; M -5.70927) was 13.3872. For the same molecule, the “Figure 1e right: MST binding curve, Mean” value ([1]; M -6.0103) was 7.2146, the “Figure 1e right: MST binding curve, Mean” value ([1]; M -6.31133) was 0.8877 and the “Figure 1e right: MST binding curve, Mean” value ([1]; M -6.61236) was 6.4707. For the same molecule, the “Figure 1e right: MST binding curve, Mean” value ([1]; M -6.91339) was 2.3532, the “Figure 1e right: MST binding curve, Mean” value ([1]; M -7.21442) was 1.6413 and the “Figure 1e right: MST binding curve, Mean” value ([1]; M -7.51545) was 0.1149. For the same molecule, the “Figure 1e right: MST binding curve, Mean” value ([1]; M -7.81648) was 2.456.
